Data reported in paper PMC11672637, “7-O-Carboxylic Acid-Substituted 3-O-Alkyl Difluoroquercetin; An Aztreonam-Potentiating Agent Against Carbapenemase-Producing Pseudomonas aeruginosa Through Simultaneous Inhibition of Metallo-β-Lactamase and Efflux Pump” (Antibiotics, 2024).

Legend:
Assay in all cases: MIC / checkerboard with ATM
Set-up in all cases: key to Susceptibility category: S: susceptible; I: intermediate; R: resistant
[1] = test system: PA-016, blaIMP; assay type: cell-based, P. aeruginosa; details: PA-016; Table S2
[2] = test system: PA-031, blaNDM; assay type: cell-based, P. aeruginosa; details: PA-031; Table S2
[3] = test system: PA-026, blaNDM; assay type: cell-based, P. aeruginosa; details: PA-026, Table S2; for MIC: Pseudomonas aeruginosa, read-out: MIC value
[4] = test system: PA-039, blaNDM; assay type: cell-based, P. aeruginosa; details: PA-039, Table S2; for MIC: Pseudomonas aeruginosa, read-out: MIC value
[5] = test system: PA-040, blaNDM; assay type: cell-based, P. aeruginosa; details: PA-040; Table S2
[6] = test system: PA-021, blaIMP; assay type: cell-based, P. aeruginosa; details: PA-021, Table S2
[7] = test system: PA-033, blaNDM; assay type: cell-based, P. aeruginosa; details: PA-033; Table S2
[8] = test system: PA-009, blaGES; assay type: cell-based, P. aeruginosa; details: PA-009, Table S2
[9] = test system: PA-030, blaIMP; assay type: cell-based, P. aeruginosa; details: PA-030; Table S2
[10] = test system: PA-034, blaNDM; assay type: cell-based, P. aeruginosa; details: PA-034; Table S2
[11] = test system: PA-029, blaIMP; assay type: cell-based, P. aeruginosa; details: PA-029; Table S2
[12] = test system: PA-025, blaNDM; assay type: cell-based, P. aeruginosa; details: PA-025; Table S2
[13] = test system: PA-036, blaNDM; assay type: cell-based, P. aeruginosa; details: PA-036; Table S2
[14] = test system: PA-042, blaIMP/NDM; assay type: cell-based, P. aeruginosa; details: PA-042, Table S2; for MIC: Pseudomonas aeruginosa, read-out: MIC value
[15] = test system: PA-044, blaNDM; assay type: cell-based, P. aeruginosa; details: PA-044; Table S2
[16] = test system: PA-032, blaIMP; assay type: cell-based, P. aeruginosa; details: PA-032, Table S2
[17] = test system: PA-041, blaNDM; assay type: cell-based, P. aeruginosa; details: PA-041, Table S2
[18] = test system: PA-035, blaGES; assay type: cell-based, P. aeruginosa; details: PA-035, Table S2; for MIC: Pseudomonas aeruginosa, read-out: MIC value
[19] = test system: PA-028, blaNDM; assay type: cell-based, P. aeruginosa; details: PA-028; Table S2
[20] = test system: PA-003, blaVIM; assay type: cell-based, P. aeruginosa; details: PA-003, Table S2; for MIC: Pseudomonas aeruginosa, read-out: MIC value
[21] = test system: PA-002, blaIMP; assay type: cell-based, P. aeruginosa; details: PA-002, Table S2; for MIC: Pseudomonas aeruginosa, read-out: MIC value
[22] = test system: PA-037, blaIMP/NDM; assay type: cell-based, P. aeruginosa; details: PA-037; Table S2
[23] = test system: PA-014, blaGES; assay type: cell-based, P. aeruginosa; details: PA-014, Table S2
[24] = test system: PA-038, blaNDM; assay type: cell-based, P. aeruginosa; details: PA-038; Table S2
[25] = test system: PA-027, blaIMP; assay type: cell-based, P. aeruginosa; details: PA-027; Table S2
[26] = test system: NDM-1-Producing P. aeruginosa (PA-017, blaNDM); assay type: cell-based; details: PA-017; Table S2
[27] = Pseudomonas aeruginosa, read-out: MIC value

| SMILES | Susceptibility category [1] | Susceptibility category [2] | Susceptibility category [3] | Susceptibility category [4] | Susceptibility category [5] | Susceptibility category [6] | Susceptibility category [7] | Susceptibility category [8] | Susceptibility category [9] | Susceptibility category [10] | Susceptibility category [11] | Susceptibility category [12] | Susceptibility category [13] | Susceptibility category [14] | Susceptibility category [15] | Susceptibility category [16] | Susceptibility category [17] | Susceptibility category [18] | Susceptibility category [19] | Susceptibility category [20] | other results |
| --- | --- | --- | --- | --- | --- | --- | --- | --- | --- | --- | --- | --- | --- | --- | --- | --- | --- | --- | --- | --- | --- |
| NCC[C@H](O)C(=O)N[C@@H]1C[C@H](N)[C@@H](O[C@H]2O[C@H](CN)[C@@H](O)[C@H](O)[C@H]2O)[C@H](O)[C@H]1O[C@H]1O[C@H](CO)[C@@H](O)[C@H](N)[C@H]1O [AMK, amikacin, reference compound] | R | R | S | S | R | S | R | S | R | R | R | R | R | R | R | S | R | S | R | R | MIC [4]: ≤ 4 µg/mL; MIC [6, 27]: 16 µg/mL; MIC [8, 27]: 16 µg/mL; MIC [18]: ≤ 4 µg/mL; Susceptibility category [21]: R; Susceptibility category [22]: R; Susceptibility category [23]: S; MIC [23, 27]: 8 µg/mL; Susceptibility category [24]: R; Susceptibility category [25]: R; Susceptibility category [26]: R |
| C[C@@H](O)[C@H]1C(=O)N2C(C(=O)O)=C(S[C@@H]3CN[C@H](C(=O)N(C)C)C3)[C@H](C)[C@H]12 [MEM, meropenem, reference compound] | R | R | S | R | R | R | R | R | R | R | R | R | R | R | R | R | R | R | R | R | MIC [3]: ≤ 0.25 µg/mL; MIC [16, 27]: 32 µg/mL; MIC [18]: 16 µg/mL; MIC [20]: 16 µg/mL; Susceptibility category [21]: R; MIC [21]: > 32 µg/mL; Susceptibility category [22]: R; Susceptibility category [23]: R; Susceptibility category [24]: R; Susceptibility category [25]: R; Susceptibility category [26]: R |
| C[C@@H](O)[C@H]1C(=O)N2C(C(=O)O)=C(SCCN=CN)C[C@H]12 [IPM, imipenem, reference compound] | R | R | I | R | R | R | R | R | R | R | R | R | R | R | R | R | R | R | R | R | MIC [3]: 4 µg/mL; MIC [14]: > 8 µg/mL; MIC [18]: 8 µg/mL; MIC [20]: > 8 µg/mL; Susceptibility category [21]: R; MIC [21]: > 8 µg/mL; Susceptibility category [22]: R; Susceptibility category [23]: R; Susceptibility category [24]: R; Susceptibility category [25]: R; Susceptibility category [26]: R |
| CO/N=C(\C(=O)N[C@@H]1C(=O)N2C(C(=O)[O-])=C(C[N+]3(C)CCCC3)CS[C@H]12)c1csc(N)n1 [FEP, cefepime, reference compound] | R | R | S | R | R | R | R | R | R | R | R | R | R | R | R | R | R | S | R | R | MIC [3]: 8 µg/mL; MIC [14]: > 16 µg/mL; MIC [18]: 4 µg/mL; MIC [20]: > 16 µg/mL; Susceptibility category [21]: R; MIC [21]: > 16 µg/mL; Susceptibility category [22]: R; Susceptibility category [23]: R; Susceptibility category [24]: R; Susceptibility category [25]: R; Susceptibility category [26]: R |
| CNC(C)C1CCC(N)C(OC2C(N)CC(N)C(OC3OCC(C)(O)C(NC)C3O)C2O)O1 (centres unmarked) [GEN, gentamicin, reference compound] | R | R | S | S | R | R | R | I | R | R | R | R | R | R | R | S | S | R | R | R | MIC [3]: ≤ 2 µg/mL; MIC [4]: ≤ 2 µg/mL; MIC [17, 27]: ≤ 2 µg/mL; MIC [20]: > 8 µg/mL; Susceptibility category [21]: R; MIC [21]: > 8 µg/mL; Susceptibility category [22]: R; Susceptibility category [23]: R; Susceptibility category [24]: R; Susceptibility category [25]: R; Susceptibility category [26]: R |
